{"source": "ChEMBL document CHEMBL3853315", "about": "“Targeting the Translesion Synthesis Pathway for the Development of Anti-Cancer Chemotherapeutics” (J Med Chem, 2016)", "key": {"[1]": {"experiment": "Growth inhibition of human MDA-MB-231 cells after 72 hrs by MTT assay", "assay_type": "functional", "conditions": "MDA-MB-231, 72 h"}, "[2]": {"molecular_target": "Ubiquitin carboxyl-terminal hydrolase 1/WD repeat-containing protein 48 (Homo sapiens, UniProt O94782)", "sequence (O94782 whole entry)": "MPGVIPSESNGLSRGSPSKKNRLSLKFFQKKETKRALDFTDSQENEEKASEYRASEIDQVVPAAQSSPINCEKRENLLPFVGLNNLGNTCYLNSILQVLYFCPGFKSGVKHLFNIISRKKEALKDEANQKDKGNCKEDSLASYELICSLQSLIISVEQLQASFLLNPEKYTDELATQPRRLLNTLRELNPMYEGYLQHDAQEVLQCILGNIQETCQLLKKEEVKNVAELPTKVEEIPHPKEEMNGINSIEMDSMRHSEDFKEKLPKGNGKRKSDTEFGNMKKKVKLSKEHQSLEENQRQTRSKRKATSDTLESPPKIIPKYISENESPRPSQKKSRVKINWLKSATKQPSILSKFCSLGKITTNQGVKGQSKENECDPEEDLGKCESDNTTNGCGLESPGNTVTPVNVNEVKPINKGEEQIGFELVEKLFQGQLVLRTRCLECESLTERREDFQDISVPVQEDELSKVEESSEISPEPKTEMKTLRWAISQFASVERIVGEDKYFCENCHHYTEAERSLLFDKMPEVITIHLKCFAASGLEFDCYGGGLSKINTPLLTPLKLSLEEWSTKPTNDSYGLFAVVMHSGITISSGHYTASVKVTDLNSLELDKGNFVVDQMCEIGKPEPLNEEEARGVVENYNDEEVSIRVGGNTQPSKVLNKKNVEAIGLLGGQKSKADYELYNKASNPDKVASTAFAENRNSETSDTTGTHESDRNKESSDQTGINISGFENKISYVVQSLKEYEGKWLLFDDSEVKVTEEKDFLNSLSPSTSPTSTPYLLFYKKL", "sequence (Q8TAF3 whole entry, further chain)": "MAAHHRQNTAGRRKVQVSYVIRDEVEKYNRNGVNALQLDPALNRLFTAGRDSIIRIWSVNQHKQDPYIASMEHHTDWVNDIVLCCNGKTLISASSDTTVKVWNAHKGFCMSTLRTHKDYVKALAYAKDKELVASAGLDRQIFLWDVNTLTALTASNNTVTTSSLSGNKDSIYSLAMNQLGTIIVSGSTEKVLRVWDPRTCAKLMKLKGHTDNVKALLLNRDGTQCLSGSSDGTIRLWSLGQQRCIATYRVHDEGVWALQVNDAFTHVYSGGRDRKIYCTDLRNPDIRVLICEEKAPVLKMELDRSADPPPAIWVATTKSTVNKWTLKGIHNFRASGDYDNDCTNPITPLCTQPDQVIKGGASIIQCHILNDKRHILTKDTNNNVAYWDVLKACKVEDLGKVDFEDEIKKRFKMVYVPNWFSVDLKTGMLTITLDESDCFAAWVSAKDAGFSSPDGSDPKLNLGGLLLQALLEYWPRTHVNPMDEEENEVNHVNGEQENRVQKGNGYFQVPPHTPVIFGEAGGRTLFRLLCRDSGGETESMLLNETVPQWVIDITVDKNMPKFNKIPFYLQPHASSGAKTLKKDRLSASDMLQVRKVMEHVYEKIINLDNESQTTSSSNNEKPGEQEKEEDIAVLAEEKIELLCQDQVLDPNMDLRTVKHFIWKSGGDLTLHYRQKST", "experiment": "Inhibition of human USP1/UAF1 complex using Ub-Rho as substrate preincubated for 30 mins followed by substrate addition by fluorescence-based HTS assay", "assay_type": "protein-complex assay"}, "[3]": {"molecular_target": "T1, Ubiquitin carboxyl-terminal hydrolase 1/WD repeat-containing protein 48 (Homo sapiens, UniProt O94782+Q8TAF3)", "T1 sequence (O94782 whole entry)": "as the sequence (O94782 whole entry) above", "T1 sequence (Q8TAF3 whole entry)": "as the sequence (Q8TAF3 whole entry, further chain) above", "experiment": "Inhibition of USP1/UAF1 complex in human H596 cells assessed as potentiation of cisplatin-induced cell killing by measuring cisplatin GI50 at 1:4 cisplatin to compound ratio pretreated for 48 hrs followed by addition of fresh growth medium measured after 5 to 10 days by colony forming assay (reference value: 486 nM)", "assay_type": "cell-based"}, "[4]": {"molecular_target": "T1, Ubiquitin carboxyl-terminal hydrolase 1/WD repeat-containing protein 48", "experiment": "Inhibition of USP1/UAF1 complex in HEK293T cells assessed as decrease in ability of DNA polymerase eta to bypass UV-induced DNA lesions after 24 hrs by strand specific PCR-based competitive replication and adduct bypass assay", "assay_type": "cell-based", "conditions": "HEK-293T, concentration not given here"}, "DNA polymerase iota": {"molecular_target": "T2, DNA polymerase iota (Homo sapiens, UniProt Q9UNA4)", "T2 sequence (Q9UNA4 whole entry)": "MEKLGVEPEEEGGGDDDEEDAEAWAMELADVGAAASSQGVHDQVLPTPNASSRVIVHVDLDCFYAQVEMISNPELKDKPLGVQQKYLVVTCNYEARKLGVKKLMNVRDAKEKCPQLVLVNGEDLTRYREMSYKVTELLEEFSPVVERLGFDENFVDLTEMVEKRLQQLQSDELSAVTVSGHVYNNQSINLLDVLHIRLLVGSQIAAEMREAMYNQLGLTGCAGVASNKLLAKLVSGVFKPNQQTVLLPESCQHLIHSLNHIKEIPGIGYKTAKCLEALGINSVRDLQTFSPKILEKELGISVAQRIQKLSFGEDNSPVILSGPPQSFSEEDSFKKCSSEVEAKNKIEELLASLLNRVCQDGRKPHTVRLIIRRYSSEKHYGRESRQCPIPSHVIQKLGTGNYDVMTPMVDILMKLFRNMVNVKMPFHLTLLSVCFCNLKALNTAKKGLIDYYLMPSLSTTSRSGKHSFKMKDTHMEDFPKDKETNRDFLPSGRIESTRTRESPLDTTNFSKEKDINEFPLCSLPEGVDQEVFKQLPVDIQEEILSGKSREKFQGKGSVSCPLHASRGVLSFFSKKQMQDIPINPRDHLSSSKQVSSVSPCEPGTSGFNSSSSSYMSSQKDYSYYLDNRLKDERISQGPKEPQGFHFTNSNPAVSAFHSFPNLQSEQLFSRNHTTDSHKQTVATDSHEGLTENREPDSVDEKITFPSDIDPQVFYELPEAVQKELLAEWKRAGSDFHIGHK", "experiment": "Inhibition of human recombinant DNA polymerase iota expressed in Baculovirus expression system using TAMRA/BHQ-2-labeled primer/template measured at 2 to 6 mins by reporter-strand displacement assay"}, "DNA polymerase eta": {"molecular_target": "T3, DNA polymerase eta (Homo sapiens, UniProt Q9Y253)", "T3 sequence (Q9Y253 whole entry)": "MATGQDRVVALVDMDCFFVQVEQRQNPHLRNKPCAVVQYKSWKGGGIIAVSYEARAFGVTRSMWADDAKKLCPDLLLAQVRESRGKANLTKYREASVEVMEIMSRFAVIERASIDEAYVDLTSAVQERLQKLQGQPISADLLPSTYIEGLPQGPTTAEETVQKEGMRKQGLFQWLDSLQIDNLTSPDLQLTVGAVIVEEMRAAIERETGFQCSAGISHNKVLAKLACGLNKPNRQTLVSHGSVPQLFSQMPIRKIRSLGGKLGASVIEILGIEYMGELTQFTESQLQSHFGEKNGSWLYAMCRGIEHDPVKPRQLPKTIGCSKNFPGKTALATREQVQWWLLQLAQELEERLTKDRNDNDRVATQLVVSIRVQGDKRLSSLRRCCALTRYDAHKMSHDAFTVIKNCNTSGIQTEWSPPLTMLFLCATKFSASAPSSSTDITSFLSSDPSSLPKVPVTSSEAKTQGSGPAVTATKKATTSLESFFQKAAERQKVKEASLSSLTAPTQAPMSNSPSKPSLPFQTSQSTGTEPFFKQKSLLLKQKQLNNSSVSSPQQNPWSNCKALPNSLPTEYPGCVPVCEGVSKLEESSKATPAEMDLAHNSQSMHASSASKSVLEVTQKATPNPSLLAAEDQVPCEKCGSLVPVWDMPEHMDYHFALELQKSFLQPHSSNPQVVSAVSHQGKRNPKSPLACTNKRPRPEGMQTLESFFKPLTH", "experiment": "Inhibition of human recombinant DNA polymerase eta expressed in Baculovirus expression system using TAMRA/BHQ-2-labeled primer/template measured at 2 to 6 mins by reporter-strand displacement assay"}, "DNA polymerase kappa": {"molecular_target": "T4, DNA polymerase kappa (Homo sapiens, UniProt Q9UBT6)", "T4 sequence (Q9UBT6 whole entry)": "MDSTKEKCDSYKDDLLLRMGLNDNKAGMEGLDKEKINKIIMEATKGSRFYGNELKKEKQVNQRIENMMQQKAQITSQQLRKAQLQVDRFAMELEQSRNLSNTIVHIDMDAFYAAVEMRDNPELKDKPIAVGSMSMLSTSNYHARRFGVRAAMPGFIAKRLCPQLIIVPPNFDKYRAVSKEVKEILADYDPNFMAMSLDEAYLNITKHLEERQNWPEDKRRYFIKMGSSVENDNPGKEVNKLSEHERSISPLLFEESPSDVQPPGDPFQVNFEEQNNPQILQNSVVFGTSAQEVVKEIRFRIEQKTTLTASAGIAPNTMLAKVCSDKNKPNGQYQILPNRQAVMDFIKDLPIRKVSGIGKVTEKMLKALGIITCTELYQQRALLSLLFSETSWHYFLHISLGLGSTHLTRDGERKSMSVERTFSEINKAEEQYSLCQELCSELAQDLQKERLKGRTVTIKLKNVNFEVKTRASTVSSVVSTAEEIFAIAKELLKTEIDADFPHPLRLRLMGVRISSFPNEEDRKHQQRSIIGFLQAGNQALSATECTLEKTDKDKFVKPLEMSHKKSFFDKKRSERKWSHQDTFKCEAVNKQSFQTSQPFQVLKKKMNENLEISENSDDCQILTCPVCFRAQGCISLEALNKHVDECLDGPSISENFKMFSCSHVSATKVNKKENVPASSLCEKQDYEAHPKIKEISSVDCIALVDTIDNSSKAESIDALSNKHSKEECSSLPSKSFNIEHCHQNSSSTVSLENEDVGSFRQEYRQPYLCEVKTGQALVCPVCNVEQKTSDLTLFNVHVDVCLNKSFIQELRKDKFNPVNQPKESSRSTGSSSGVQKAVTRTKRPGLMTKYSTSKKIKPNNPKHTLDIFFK", "experiment": "Inhibition of human DNA polymerase kappa (19 to 526 residues)-mediated TLS past acrolein derived ring-opened reduced form of gamma-HOPdG lesions preincubated for 15 mins followed by DNA substrate addition measured after 30 mins in presence of dCTP and dGTP by radioactive gel-based primer extension assay"}, "[5]": {"molecular_target": "T1, Ubiquitin carboxyl-terminal hydrolase 1/WD repeat-containing protein 48", "experiment": "Inhibition of human USP1/UAF1 complex using Ub-Rho as substrate by qHTS assay", "assay_type": "protein-complex assay"}}, "note": "pIC50: −log10 of the molar value."}
{"smiles": "Nc1nc(COC(=O)c2ccc([N+](=O)[O-])cc2)nc(Nc2ccccc2)n1", "values": [{"measurement": "GI50", "setting": "[1]", "result": 10, "unit": "µM"}]}
{"smiles": "Cc1ccc(Nc2nc(N)nc(COC(=O)c3ccc([N+](=O)[O-])cc3)n2)cc1", "values": [{"measurement": "GI50", "setting": "[1]", "result": 10, "unit": "µM"}]}
{"smiles": "O=C1c2ccccc2C(=O)C2OC(c3ccc(F)cc3)=NC12", "note": "(centres undefined)", "values": [{"measurement": "pIC50", "setting": "[2]", "result": 6.06}]}
{"smiles": "Cc1cnc(-c2ccccc2C(C)C)nc1NCc1ccc(-n2ccnn2)cc1", "values": [{"measurement": "GI50", "setting": "[3]", "result": 0.059, "unit": "µM"}, {"measurement": "inhibition", "setting": "[4]", "result": 31, "unit": "%"}]}
{"smiles": "O=C(O)C1=CC(=C(c2ccc(O)c(C(=O)O)c2)c2ccc(O)c(C(=O)O)c2)C=CC1=O", "note": "[AURINTRICARBOXYLIC ACID]", "values": [{"measurement": "pIC50", "setting": "DNA polymerase iota", "result": 7.12}, {"measurement": "pIC50", "setting": "DNA polymerase eta", "result": 7.12}]}
{"smiles": "CCOc1nc2cccc(C(=O)OC(C)OC(=O)OC3CCCCC3)c2n1Cc1ccc(-c2ccccc2-c2nnn[nH]2)cc1", "note": "(centres undefined) [CANDESARTAN CILEXETIL]", "values": [{"measurement": "pIC50", "setting": "DNA polymerase kappa", "result": 5.25}]}
{"smiles": "O=c1oc2c(O)c(O)cc3c(=O)oc4c(O)c(O)cc1c4c23", "note": "[ELLAGIC ACID]", "values": [{"measurement": "pIC50", "setting": "DNA polymerase iota", "result": 7.21}, {"measurement": "pIC50", "setting": "DNA polymerase eta", "result": 7.21}]}
{"smiles": "CC(C)(Sc1ccc(CCN(CCCCC2CCCCC2)C(=O)NC2CCCCC2)cc1)C(=O)O", "note": "[GW7647]", "values": [{"measurement": "pIC50", "setting": "[5]", "result": 5.30}]}
{"smiles": "O=c1[nH]c2ccccc2n1C1CCN(CCCC(c2ccc(F)cc2)c2ccc(F)cc2)CC1", "note": "[PIMOZIDE]", "values": [{"measurement": "pIC50", "setting": "[5]", "result": 5.70}]}
{"smiles": "CC(=O)c1c(O)c(C)c(O)c(Cc2c(O)c3c(c(C(=O)/C=C/c4ccccc4)c2O)OC(C)(C)C=C3)c1O", "note": "[ROTTLERIN]", "values": [{"measurement": "pIC50", "setting": "[5]", "result": 5.10}]}
{"smiles": "CN1CCN(CCCN2c3ccccc3Sc3ccc(C(F)(F)F)cc32)CC1", "note": "[TRIFLUOPERAZINE]", "values": [{"measurement": "pIC50", "setting": "[5]", "result": 5.10}]}
